pIC50: −log10 of the molar value.
Key:
IL-8 [1] = experiment: TNFα-stimulated IL-8 production in primary bronchial epithelial cells from COPD; format: cell-based; conditions: Homo sapiens, Epithelial cell
Description: Primary airway epithelial cells obtained from patients with COPD were purchased from Asterand (Royston, UK), and maintained in bronchial epithelial cell growth media that was prepared by mixing together LHC8 (lnvitrogen) (500 mL), with LHC9 (Invitrogen) (500 mL) and 3 μL of retinoic acid solution (5 mg/mL in neat DMSO. The media was removed by aspiration and fresh BEGM (200 μL) was added to each well. Where appropriate, 1 μL of a solution of the test compound at the state concentrations or 1 μL of DMSO as the vehicle control was added and the cells were incubated for 2 hr. The cells were stimulated with TNFα (50 μL; final concentration 50 ng/mL) and then incubated for 4 hr at 37° C. and 5% CO2. The supernatant was then collected and kept at −20° C.
The levels of IL-6 and IL-8 were determined by ELISA using R&D Systems' Human IL-6 and IL-8 Duoset® Elisa Kits. The inhibition of IL-6 and IL-8 production was calculated at each concentration by comparison with vehicle control.

IL-8 [2] = experiment: LPS-stimulated IL-8 production in sputum macrophages from COPD; format: cell-based; conditions: Homo sapiens, Macrophage
Description: Patients with COPD were inhaled with a nebulised solution of 3% (w/v) hypertonic saline using an ultrasonic nebuliser (Devilbiss, Carthage, Mo.) with tidal breathing for 5 min. This procedure was repeated a maximum of three times until enough sputum was obtained. The sputum samples were homogenized and mixed vigorously using a vortex mixer in 0.02% v/v dithiothreitol (DTT) solution. The samples were re-suspended in PBS (40 mL) followed by centrifugation at 1500 rpm at 4° C. for 10 min to obtain sputum cell pellets. The pellets were washed twice with PBS (40 mL). The sputum cells were then re-suspended in macrophage serum-free medium (macrophage-SFM, Life technologies, Paisley, UK; to achieve 2×10^6/well in a 24 well plate) containing 20 U/mL penicillin, 0.02 mg/mL streptomycin and 5 μg/mL amphotericin B and seeded on high bound 96-well plate, followed by incubation for 2 hr at 37° C. and at 5% CO2 to allow the macrophages to attach to the bottom of the plate. The cells on the plate were washed with fresh macrophage-SFM (200 μL/well) to remove neutrophils and other contaminated cells. The adherent cells (mainly sputum macrophages) on the plate were used for further analysis. Sputum induction and isolation were conducted in Quintiles Drug Research Unit at Guys Hospital and ethics approval and written informed consent was obtained by Quintiles.
Where appropriate, 1 μL of a solution containing either the test compound or reference article at the stated concentrations or alternatively 1 μL of DMSO as the vehicle control was added to each well (200 μL in media) and the cells were incubated for 2 hr. […] After washing with 200 uL wash buffer per well, the beads were resuspended in sheath fluid (150 μL) and analyzed immediately. The level of each analyte in the supernatant was calculated using Xcel Fit software with a 4 or 5-parameter equation using each standard curve. The inhibitions of each cytokine production were calculated at each concentration by comparison with vehicle control. The IC50 values were determined from concentration-inhibition curves using XL-Fit (idbs, Guildford, UK)

A/J mice = experiment: Cigarette smoke model: macrophage and neutrophil accumulation in BALF; format: in vivo, mouse; conditions: for % inhibition Macrophage in BALF / % inhibition Neutrophil in BALF: tobacco smoke
Description: A/J mice (males, 5 weeks old) were exposed to cigarette smoke (4% cigarette smoke, diluted with air) for 30 min/day for 11 days using a Tobacco Smoke Inhalation Experiment System for small animals (Model SIS-CS; Sibata Scientific Technology, Tokyo, Japan). […] At 12 hr after the last dosing, each of the animals was anesthetized, the trachea cannulated and bronchoalveolar lavage fluid (BALF) was collected. The numbers of alveolar macrophages and neutrophils were determined by FACS analysis (EPICS® ALTRA II, Beckman Coulter, Inc., Fullerton, Calif., USA) using anti-mouse MOMA2 antibody (macrophage) or anti-mouse 7/4 antibody (neutrophil). BALF was centrifuged and the supernatant was collected. The level of keratinocyte chemoattractant (KC; CXCL1) in BALF was quantitated using a Quentikine® mouse KC ELISA kit (R&D systems, Inc., Minneapolis, Minn., USA).

IL-8 [3] = experiment: LPS-induced IL-8 release in d-U937 cells; format: cell-based; conditions: Homo sapiens, dU937, dU937 cells
Outline: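 U937 cells differentiated with PMA (100 ng/mL, 48–72 hr) were pre-incubated with compound for 2 hr, then stimulated with E. coli O111:B4 LPS (0.1 μg/mL) for 4 hr. Supernatant cytokine measured by sandwich ELISA; inhibition vs vehicle control at each concentration, REC50 taken from the concentration-response curve.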

d-U937 cells = experiment: Cell viability: MTT assay; format: cell-based, human; conditions: 1 μg/mL
Description: Differentiated U937 cells were pre-incubated with each test compound (final concentration 1 μg/mL or 10 μg/mL in 200 μL media indicated below) under two protocols: the first for 4 hr in 5% FCS RPMI1640 media and the second in 10% FCS RPMI1640 media for 24 h. The supernatant was replaced with new media (200 μL) and MTT stock solution (10 μL, 5 mg/mL) was added to each well. After incubation for 1 hr the media were removed, DMSO (200 μL) was added to each well and the plates were shaken lightly for 1 hr prior to reading the absorbance at 550 nm. The percentage loss of cell viability was calculated for each well relative to vehicle (0.5% DMSO) treatment. Consequently an apparent increase in cell viability for drug treatment relative to vehicle is tabulated as a negative percentage.

Structure (SMILES) | pIC50 (IL-8 [1]; COPD patients, TNFα stimulated) | Emax at 0.1 µg/mL (IL-8 [1]; read-out: IL-8 E max, bronchial epithelial cell) | pIC50 (IL-8 [2]; COPD patients, LPS) | Emax at 0.1 µg/mL (IL-8 [2]; read-out: IL-8 E max, sputum macrophage) | macrophage accumulation in BALF induced by cigarette smoke, effect in words (A/J mice; mice) | neutrophil accumulation in BALF induced by cigarette smoke, effect in words (A/J mice; mice) | % inhibition Macrophage in BALF (A/J mice; 0.32 μg/mL intra-nasal) | % inhibition Neutrophil in BALF (A/J mice; 0.32 μg/mL intra-nasal) | % inhibition Macrophage in BALF (A/J mice; 1.6 μg/mL intra-nasal) | % inhibition Neutrophil in BALF (A/J mice; 1.6 μg/mL intra-nasal) | % inhibition Macrophage in BALF (A/J mice; 8.0 μg/mL intra-nasal) | % inhibition Neutrophil in BALF (A/J mice; 8.0 μg/mL intra-nasal) | % inhibition Macrophage in BALF (A/J mice; 40 μg/mL intra-nasal) | % inhibition Neutrophil in BALF (A/J mice; 40 μg/mL intra-nasal) | pIC50 (IL-8 [3]) | MTT Assay Cell viability at time point in d-U937 Cells 4 h (d-U937 cells; 4 h) | MTT Assay Cell viability at time point in d-U937 Cells 24 h (d-U937 cells; 24 h)
Cc1ccc(-n2nc(C(C)(C)C)cc2NC(=O)Nc2ccc(Oc3ccnc(Nc4ccccc4)n3)c3ccccc23)cc1 [Example 1, 1-(3-(tert-Butyl)-1-(p-tolyl)-1H-pyrazol-5-yl)-3-(4-(2-(phenylamino)pyrimidin-4-yloxy)naphthalen-1-yl)urea] | 9.07 | 100% | 7.17 | 64% | dose-dependent inhibition | dose-dependent inhibition | 11% | 12% | 28% | 29% | 43% | 41% | 64% | 52% |  |  | 
Cc1ccc(-n2nc(C(C)(C)C)cc2NC(=O)Nc2ccc(Oc3ccnc(Nc4cccc(O)c4)n3)c3ccccc23)cc1 [Example 2, 1-(3-(tert-Butyl)-1-(p-tolyl)-1H-pyrazol-5-yl)-3-(4-((2-((3-hydroxyphenyl)amino)pyrimidin-4-yl)oxy)naphthalen-1-yl)urea] |  |  |  |  |  |  |  |  |  |  |  |  |  |  | 8.57 | −ve (−ve and +ve indicate the value is below and above respectively, the no significant effect threshold defined as 30% inhibition at 1 μg/mL at the time point indicated) | −ve (−ve and +ve indicate the value is below and above respectively, the no significant effect threshold defined as 30% inhibition at 1 μg/mL at the time point indicated)

From patent publication US10238658B2, “1-pyrazolyl-3-(4-((2-anilinopyrimidin-4-yl) oxy) napththalen-1-yl) ureas as p38 MAP kinase inhibitors” (Respivert Limited, priority 2011, dated 2019)
